The source made the active and inactive calls. No cut-off for these calls is given here.
Tests used:
Type in all cases: functional, cell-based
SU-DHL-2 = experiment: Antitumor activity against human SUDHL2 cells assessed as reduction in cell viability incubated for 72 hrs; details: SU-DHL-2, 72 h
KG-1 [1] = experiment: Antitumor activity against human KG-1 cells assessed as reduction in cell viability incubated for 72 hrs; details: KG-1, 72 h
THP-1 [2] = experiment: Antitumor activity against human THP-1 cells assessed as reduction in cell viability incubated for 72 hrs; details: THP-1, 72 h
U-937 [3] = experiment: Antitumor activity against human U-937 cells assessed as reduction in cell viability incubated for 72 hrs; details: U-937, 72 h
SK-OV-3 [4] = experiment: Antitumor activity against human SK-OV-3 cells assessed as reduction in cell viability incubated for 72 hrs; details: SK-OV-3, 72 h
K562 = experiment: Antitumor activity against human K562 cells assessed as reduction in cell viability incubated for 72 hrs; details: K562, 72 h
SK-OV-3 [5] = experiment: Antitumor activity against taxol-resistant human SK-OV-3 cells assessed as reduction in cell viability incubated for 72 hrs; details: SK-OV-3, 72 h
HL-60 [6] = experiment: Antitumor activity against human HL-60 cells assessed as reduction in cell viability incubated for 72 hrs; details: HL-60, 72 h
NB-4 [7] = experiment: Antitumor activity against human NB4 cells assessed as reduction in cell viability incubated for 72 hrs; details: NB-4, 72 h
HL-60 [8] = experiment: Induction of differentiation of human HL-60 cells assessed as increase in CD11b expression at 0.5 uM measured after 72 hrs by flow cytometric analysis
NB-4 [9] = experiment: Induction of differentiation of human NB4 cells assessed as increase in CD11b expression at 0.5 uM measured after 72 hrs by flow cytometric analysis
KG-1 [10] = experiment: Induction of differentiation of human KG-1 cells assessed as increase in CD11b expression at 0.5 uM measured after 72 hrs by flow cytometric analysis
U-937 [11] = experiment: Induction of differentiation of human U-937 cells assessed as increase in CD11b expression at 0.5 uM measured after 72 hrs by flow cytometric analysis
THP-1 [12] = experiment: Induction of differentiation of human THP1 cells assessed as increase in CD11b expression at 0.5 uM measured after 72 hrs by flow cytometric analysis

| Structure (SMILES) | IC50 (SU-DHL-2) [µM] | IC50 (KG-1 [1]) [µM] | IC50 (THP-1 [2]) [µM] | IC50 (U-937 [3]) [µM] | IC50 (SK-OV-3 [4]) [µM] | IC50 (K562) [µM] | IC50 (SK-OV-3 [5]) [µM] | IC50 (HL-60 [6]) [µM] | IC50 (NB-4 [7]) [µM] | Activity (HL-60 [8]) | Activity (NB-4 [9]) | Activity (KG-1 [10]) | Activity (U-937 [11]) | Activity (THP-1 [12]) |
| --- | --- | --- | --- | --- | --- | --- | --- | --- | --- | --- | --- | --- | --- | --- |
| N#Cc1ccc(C(O)C2=C3C=C[C@@H]4C[C@@]3(OC2=O)[C@@H]2CCCCN42)cc1 (stereo not given in full) | 19.3 | 2.57 | 15.6 | 2.2 | 4.18 | 3.11 | 4.54 | 7.16 | 3.84 | – | – | – | – | – |
| O=C1O[C@@]23C[C@@H](C=CC2=C1C(O)c1ccccc1Br)N1CCCC[C@H]13 (stereo not given in full) | 20.7 | 4.11 | 15.5 | 4.38 | 7.76 | 1.68 | 5.59 | 3.52 | 4.67 | – | – | – | – | – |
| O=C1O[C@@]23CC(C=CC2=C1C(O)c1ccccc1[N+](=O)[O-])N1CCCC[C@H]13 (single isomer, unassigned) | 16.1 | 4.18 | 10.7 | 8.05 | 10.2 | 3.7 | 9.91 | 9.2 | 3.3 | – | – | – | – | – |
| O=C1O[C@@]23C[C@@H](C=CC2=C1C(O)c1nc2ccccc2s1)N1CCCC[C@H]13 (stereo not given in full) | 18 | – | 16.4 | 13.8 | 21 | – | – | – | – | – | – | – | – | – |
| O=C1O[C@@]23C[C@@H](C=CC2=C1C(O)c1ccc(F)cc1)N1CCCC[C@H]13 (stereo not given in full) | 15.3 | 2.12 | 12.4 | 16.6 | 6.84 | 17.3 | 8.32 | 15.2 | 10.3 | – | – | – | – | – |
| O=C1O[C@@]23C[C@@H](C=CC2=C1C(O)c1cccc([N+](=O)[O-])c1)N1CCCC[C@H]13 (stereo not given in full) | 9.28 | 1.98 | 12 | 4.64 | 3.11 | 2.69 | 3.5 | 6.2 | 3.01 | Active | Active | Active | Active | Active |
| O=C1O[C@@]23C[C@@H](C=CC2=C1C(O)c1ccc(Cl)cc1)N1CCCC[C@H]13 (stereo not given in full) | 18.3 | 3.95 | 14.8 | 7.56 | 9.94 | 4.47 | 11 | 11.8 | 10.1 | – | – | – | – | – |
| O=C1O[C@@]23C[C@@H](C=CC2=C1C(O)c1csc2ccccc12)N1CCCC[C@H]13 (stereo not given in full) | 27.9 | 6.14 | 15.6 | 29.6 | 22.2 | 2.37 | 20.7 | 20.4 | 4.45 | – | – | – | – | – |
| O=C1O[C@@]23C[C@@H](C=CC2=C1C(O)c1ccccc1Cl)N1CCCC[C@H]13 (stereo not given in full) | 16.4 | 3.8 | 19.2 | 3.81 | 4.52 | 5.37 | 5.37 | 7.42 | 3.18 | – | – | – | – | – |
| O=C1O[C@@]23C[C@@H](C=CC2=C1C(O)c1cccc(F)c1)N1CCCC[C@H]13 (stereo not given in full) | 16 | 3.98 | 12 | 8.73 | 3.42 | 4.45 | 6.52 | 8.73 | 4.01 | – | – | – | – | – |
| O=C1C=C2C=C[C@H]3C[C@@]2(O1)[C@@H]1CCCCN13 | > 50 | > 50 | > 50 | 14.9 | 35.2 | 38.1 | 36.4 | 21.2 | 20.4 | – | – | – | – | – |
| O=C1O[C@@]23C[C@@H](C=CC2=C1C(O)c1ccc(-c2ccccc2)cc1)N1CCCC[C@H]13 (stereo not given in full) | 9.59 | 4.77 | 9.15 | 3.63 | 14.8 | 3.15 | 13.8 | 6.76 | 3.32 | – | – | – | – | – |
| O=C1O[C@@]23C[C@@H](C=CC2=C1C(O)c1ccc([N+](=O)[O-])cc1[N+](=O)[O-])N1CCCC[C@H]13 (stereo not given in full) | 18.3 | 3.08 | 18 | 6.36 | 7.86 | 10.8 | 8.89 | 10.8 | 12 | – | – | – | – | – |
| Cc1ccccc1C(O)C1=C2C=C[C@@H]3C[C@@]2(OC1=O)[C@@H]1CCCCN31 (stereo not given in full) | 27.2 | 10 | 26.9 | 8.04 | 20.1 | 12.7 | 19.3 | 13.4 | 5.01 | – | – | – | – | – |
| CS(=O)(=O)c1ccc(C(O)C2=C3C=C[C@@H]4C[C@@]3(OC2=O)[C@@H]2CCCCN42)cc1 (stereo not given in full) | 20.8 | 4.84 | 25.9 | 27.3 | 11.6 | 17.7 | 12.5 | 17.2 | 12.8 | – | – | – | – | – |
| CC[C@@]1(O)C(=O)OCc2c1cc1n(c2=O)Cc2cc3ccccc3nc2-1 [CAMPTOTHECIN] | 0.94 | 2.31 | 1.89 | 1.81 | – | 0.58 | 4.86 | 0.91 | 2.01 | – | – | – | – | – |
| O=C1O[C@@]23C[C@@H](C=CC2=C1C(O)c1ccccc1F)N1CCCC[C@H]13 (stereo not given in full) | 20.3 | 3.54 | 3.34 | 4.22 | 10.2 | 7.14 | 12.8 | 9.47 | 10.9 | – | – | – | – | – |
| O=C1O[C@@]23C[C@@H](C=CC2=C1C(O)c1ccc(C(F)(F)F)cc1)N1CCCC[C@H]13 (stereo not given in full) | 12.1 | 1.83 | 6.16 | 3.68 | 13.5 | 6.06 | 14.8 | 4.17 | 1.99 | – | – | – | – | – |
| O=C1O[C@@]23C[C@@H](C=CC2=C1C(O)c1ccc(Br)cc1)N1CCCC[C@H]13 (stereo not given in full) | 15.2 | 2.27 | 15.5 | 10.8 | 14.2 | 2.58 | 12.5 | 9.92 | 6.18 | – | – | – | – | – |
| O=C1O[C@@]23C[C@@H](C=CC2=C1C(O)c1ccc(F)cc1F)N1CCCC[C@H]13 (stereo not given in full) | 15.3 | 2.21 | 15.8 | 6.99 | 14.7 | 10.3 | 14.9 | 7.66 | 5.8 | – | – | – | – | – |
| Cc1ccc(C(O)C2=C3C=C[C@@H]4C[C@@]3(OC2=O)[C@@H]2CCCCN42)cc1 (stereo not given in full) | 19.4 | 5.58 | 12.7 | 11.1 | 7.58 | 8.35 | 8.42 | 11.5 | 13.2 | – | – | – | – | – |
| N#Cc1cccc(C(O)C2=C3C=C[C@@H]4C[C@@]3(OC2=O)[C@@H]2CCCCN42)c1 (stereo not given in full) | 20.1 | 1.95 | 16.1 | 1.79 | 6.68 | 6.02 | 7.61 | 9.98 | 7.7 | – | – | – | – | – |
| O=C1O[C@@]23C[C@@H](C=CC2=C1C(O)c1ccccc1)N1CCCC[C@H]13 (stereo not given in full) | 19 | 9.12 | 20.7 | 9.23 | 14.5 | 16.9 | 15.1 | 14.7 | 13.3 | – | – | – | – | – |
| CC(C)(C)c1ccc(C(O)C2=C3C=C[C@@H]4C[C@@]3(OC2=O)[C@@H]2CCCCN42)cc1 (stereo not given in full) | 20.9 | 5.77 | 16.1 | 16.7 | 14.9 | 20.1 | 17 | 16 | 15.9 | – | – | – | – | – |

From ChEMBL document CHEMBL5252615, “Synthesis, biological activity and mechanism of action of novel allosecurinine derivatives as potential antitumor agents” (Bioorg Med Chem, 2023)
